Our source for the AC50 values is patent US20250262201A1, “COMPOUNDS AND METHODS USEFUL FOR STABILIZING PHENYLALANINE HYDROXYLASE MUTATIONS” (Agios Pharmaceuticals, Inc., priority 2022, published 2025).

As a reminder, the AC50 is the midpoint of the concentration-response curve, whichever way the signal moves.

For the test, the target named is T1, human PAH with the R408W mutation (Homo sapiens, UniProt P00439, R408W).
T1 construct: expressed in transfected cells
T1 sequence (P00439 1-452 R408W): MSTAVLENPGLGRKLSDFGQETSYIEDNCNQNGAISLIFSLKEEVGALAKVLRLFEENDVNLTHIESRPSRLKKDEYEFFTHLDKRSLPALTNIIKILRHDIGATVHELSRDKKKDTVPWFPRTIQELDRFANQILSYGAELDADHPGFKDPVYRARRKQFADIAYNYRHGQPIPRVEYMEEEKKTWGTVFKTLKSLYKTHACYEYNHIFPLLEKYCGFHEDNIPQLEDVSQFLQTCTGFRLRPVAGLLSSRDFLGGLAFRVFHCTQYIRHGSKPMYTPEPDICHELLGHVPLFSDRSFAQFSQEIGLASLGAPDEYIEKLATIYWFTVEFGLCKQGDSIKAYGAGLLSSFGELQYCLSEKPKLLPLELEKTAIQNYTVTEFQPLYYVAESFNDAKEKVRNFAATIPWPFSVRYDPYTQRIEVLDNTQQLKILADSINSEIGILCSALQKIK
Description: Cell Based Phenylalanine Flux Assay. The following applies: A375 cells expressing human R408W PAH; 24 hrs compound incubation; 13C-Tyrosine by LC-MS; average where tested multiple times; read-out: AC50.
Take `C[C@H]1CN(C(=O)c2nnc(-c3ccc(F)cn3)o2)[C@H](c2cc3ccccc3cn2)c2nc[nH]c21` [Example 496, (5-(5-fluoropyridin-2-yl)-1,3,4-oxadiazol-2-yl)((4R,7S)-4-(isoquinolin-3-yl)-7-methyl-6,7-dihydro-1H-imidazo[4,5-c]pyridin-5(4H)-yl)methanone]: the AC50 was 1000 to 5000 nM.

Turning to `C[C@H]1CN(C(=O)c2nnc(-c3ccc(F)cn3)o2)[C@@H](c2cc3ccccc3cn2)c2nc[nH]c21` [Example 497, (5-(5-fluoropyridin-2-yl)-1,3,4-oxadiazol-2-yl)((4S,7S)-4-(isoquinolin-3-yl)-7-methyl-6,7-dihydro-1H-imidazo[4,5-c]pyridin-5(4H)-yl)methanone], the AC50 fell in the range of 1000 to 5000 nM.

As for `C[C@H]1CN(C(=O)c2nnc(C(C)(C)F)o2)[C@@H](c2cc3ccccc3cn2)c2nc[nH]c21` [Example 498, (5-(2-fluoropropan-2-yl)-1,3,4-oxadiazol-2-yl)((4S,7S)-4-(isoquinolin-3-yl)-7-methyl-6,7-dihydro-1H-imidazo[4,5-c]pyridin-5(4H)-yl)methanone], the AC50 is 1000 to 5000 nM.

For `C[C@H]1CN(C(=O)c2nnc(C(C)(C)F)o2)[C@H](c2cc3ccccc3cn2)c2nc[nH]c21` [Example 499, (5-(2-fluoropropan-2-yl)-1,3,4-oxadiazol-2-yl)((4R,7S)-4-(isoquinolin-3-yl)-7-methyl-6,7-dihydro-1H-imidazo[4,5-c]pyridin-5(4H)-yl)methanone], the concentration at half-maximal activity (AC50) lay within 500 to 1000 nM.

For the compound `C[C@@H]1CN(C(=O)c2nnc(C(C)(C)F)o2)[C@H](c2cc3ccccc3cn2)c2nc[nH]c21` [Example 501, (5-(2-fluoropropan-2-yl)-1,3,4-oxadiazol-2-yl)((4R,7R)-4-(isoquinolin-3-yl)-7-methyl-6,7-dihydro-1H-imidazo[4,5-c]pyridin-5(4H)-yl)methanone], the AC50 is below 500 nM.

On to `C[C@H]1CN(C(=O)c2cnco2)[C@H](c2cc3ccccc3cn2)c2nc[nH]c21` [Example 503, ((4R,7S)-4-(isoquinolin-3-yl)-7-methyl-6,7-dihydro-1H-imidazo[4,5-c]pyridin-5(4H)-yl)(oxazol-5-yl)methanone], for which the AC50 lay in the range of 500 to 1000 nM.

Turning to `C[C@@H]1CN(C(=O)c2cnco2)[C@H](c2cc3ccccc3cn2)c2nc[nH]c21` [Example 505, ((4R,7R)-4-(isoquinolin-3-yl)-7-methyl-6,7-dihydro-1H-imidazo[4,5-c]pyridin-5(4H)-yl)(oxazol-5-yl)methanone], the AC50 was below 500 nM.

Turning to `C[C@H]1CN(C(=O)c2ocnc2C2CC2)[C@H](c2cc3ccccc3cn2)c2nc[nH]c21` [Example 506, (4-cyclopropyloxazol-5-yl)((4R,7S)-4-(isoquinolin-3-yl)-7-methyl-6,7-dihydro-1H-imidazo[4,5-c]pyridin-5(4H)-yl)methanone], the AC50 was below 500 nM.

Consider `C[C@H]1CN(C(=O)c2ocnc2C2CC2)[C@@H](c2cc3ccccc3cn2)c2nc[nH]c21` [Example 507, (4-cyclopropyloxazol-5-yl)((4S,7S)-4-(isoquinolin-3-yl)-7-methyl-6,7-dihydro-1H-imidazo[4,5-c]pyridin-5(4H)-yl)methanone], for which the AC50 lay in the range of 1000 to 5000 nM.

As to `C[C@H]1CN(C(=O)c2nnc(C3CC3)o2)[C@H](c2cc3ccccc3cn2)c2nc[nH]c21` [Example 511, (5-cyclopropyl-1,3,4-oxadiazol-2-yl)((4R,7S)-4-(isoquinolin-3-yl)-7-methyl-6,7-dihydro-1H-imidazo[4,5-c]pyridin-5(4H)-yl)methanone], the AC50 was 500 to 1000 nM.

Consider `C[C@@H]1CN(C(=O)c2nnc(C3CC3)o2)[C@H](c2cc3ccccc3cn2)c2nc[nH]c21` [Example 513, (5-cyclopropyl-1,3,4-oxadiazol-2-yl)((4R,7R)-4-(isoquinolin-3-yl)-7-methyl-6,7-dihydro-1H-imidazo[4,5-c]pyridin-5(4H)-yl)methanone], for which the AC50 is 500 to 1000 nM.

In the case of `COc1ccc(-c2nnc(C(=O)N3C[C@H](C)c4[nH]cnc4[C@@H]3c3cc4ccccc4cn3)o2)nc1` [Example 515, ((4S,7S)-4-(isoquinolin-3-yl)-7-methyl-6,7-dihydro-1H-imidazo[4,5-c]pyridin-5(4H)-yl)(5-(5-methoxypyridin-2-yl)-1,3,4-oxadiazol-2-yl)methanone], the AC50 is 1000 to 5000 nM.

As to `COc1ccc(-c2nnc(C(=O)N3C[C@H](C)c4[nH]cnc4[C@H]3c3cc4ccccc4cn3)o2)nc1` [Example 516, ((4R,7S)-4-(isoquinolin-3-yl)-7-methyl-6,7-dihydro-1H-imidazo[4,5-c]pyridin-5(4H)-yl)(5-(5-methoxypyridin-2-yl)-1,3,4-oxadiazol-2-yl)methanone], the AC50 was 500 to 1000 nM.

In the case of `N#Cc1ncoc1C(=O)N1CCc2[nH]cnc2[C@H]1c1cc2ccccc2cn1` [Example 517, (R)-5-(4-(isoquinolin-3-yl)-4,5,6,7-tetrahydro-1H-imidazo[4,5-c]pyridine-5-carbonyl)oxazole-4-carbonitrile], the AC50 was below 500 nM.

`Cn1ncnc1C(=O)N1CCc2[nH]cnc2[C@H]1c1cc2ccccc2cn1` [Example 518, [(4R)-4-(3-isoquinolyl)-1,4,6,7-tetrahydroimidazo[4,5-c]pyridin-5-yl]-(2-methyl-1,2,4-triazol-3-yl)methanone]: the AC50 is below 500 nM.

With “(R)-(5-(1-methyl-1H-imidazol-4-yl)-1,3-oxadiazol-2- yl)(4-(quinazolin-2-yl)-6,7-dihydro-1H-imidazo[4,5- c]pyridin-5(4H)-yl)methanone [Example 198]”, the AC50 is above 5000 nM.
